In paper PMC6160999, “Pharmacokinetics, Tissue Distribution and Excretion of a Novel Diuretic (PU-48) in Rats” (Pharmaceutics, 2018):
Values joined by “and” are separate entries in the source; they are usually repeats but may differ in a detail not shown here. Identical values can stand only once.

Assays:
[1] = Urine and feces excretion after single oral PU-48 SNEDDS; format: in vivo; conditions: rat, oral PU-48 SNEDDS 12 mg/kg
[2] = as above; format: in vivo; conditions: rat, oral PU-48 SNEDDS 12 mg/kg; remark: listed apart in the source
Description: Internal standard (IS, 25 μL) was added to 50 μL plasma, urine, or bile sample in a clean tube, placed into a water bath at 37 °C, and dried under a gentle stream of nitrogen gas, followed by the addition of 0.5 mL of ethyl acetate for liquid-liquid extraction. The mixture was shaken by a vortex mixer for 3 min, and then centrifuged at 8000 rpm (4200× g) for 10 min at 4 °C. After centrifugation, the upper organic phase was transferred into a clean centrifuge tube and then dried it again. The combined upper organic phases were evaporated to dryness at 37 °C under a gentle stream of nitrogen gas. The residue was reconstituted with 50 μL acetonitrile and then centrifuged at 13,000 rpm (12,000× g) for 10 min at 4 °C, the upper liquid was transferred into sample vials. Finally, 5 μL aliquots were injected into the LC–MS/MS system to analyze. Each tissue samples were homogenized in normal saline (0.9% NaCl, 1:3, w/v), and then centrifuged at 10,000× g for 10 min to get the supernatant. Other steps were the same as plasma sample preparation.
Feces samples were homogenized in 0.9% NaCl solution (1 g/10 mL), vortexed for 1 min and then centrifuged at 1200× g for 15 min to gather the supernatant. A volume of 25 μL of IS was added to 500 μL mixture in a clean tube, placed into a water bath at 37 °C and dried under a gentle stream of nitrogen gas, followed by the addition of 2 mL of ethyl acetate for twice liquid-liquid extraction (total 4 mL). The residue was reconstituted with 50 μL mobile phase and then 5 μL aliquots were injected into the HPLC system to analyze.
Six male rats were given single orally administration of PU-48 (12 mg/kg, 1.2 mg/mL in the SNEDDS formulation) and housed in separate stainless-steel metabolism cages. Both feces and urine samples were collected at 0–1, 1–2, 2–4, 4–6, 6–8, 8–12, 12–24, 24–48, 48–72 and 72–96 h. In a separate study, bile samples were collected 0–1, 1–2, 2–4, 4–6, 6–8, 8–12, 12–24, 24–48, 48–72 and 72–96 h after oral administration of PU-48 (12 mg/kg, 1.2 mg/mL in the SNEDDS formulation) to six bile duct-cannulated rats.

SMILES: COC(=O)c1sc2nc3ccc(OC)cc3cc2c1N [PU-48, Methyl 3-amino-6-methoxythieno [2,3-b] quinoline-2-carboxylate]
- Accumulative Excretion Amount, urine ([1]; 24–36 h): 1058.2 ± 684.1 ng
- Accumulative Excretion Amount, urine ([1]; 36–48 h): 1216.6 ± 716.3 ng
- Accumulative Excretion Percentage, urine ([1]; 36–48 h): 0.0436 ± 0.0261%
- Accumulative Excretion Amount, urine ([2]; 0–1 h): 61.2 ± 13.4 ng
- Accumulative Excretion Percentage, urine ([2]; 0–1 h): 0.0022 ± 0.0005%
- Excretion Amount, urine ([2]; 0–1 h): 61.2 ± 13.4 ng
- PU-48 Concentration in urine ([2]; 0–1 h): 627.9 ± 94.1 ng/mL
- Accumulative Excretion Amount, feces ([2]; 0–6 h): 0.1 µg
- Accumulative Excretion Percentage, feces ([2]; 0–6 h): 0.0022%
- Excretion Amount, feces ([2]; 0–6 h): 0.1 µg
- PU-48 Concentration in feces ([2]; 0–6 h): 0.1 µg/mL
- Accumulative Excretion Amount, urine ([2]; 1–2 h): 131.8 ± 37.9 ng
- Accumulative Excretion Percentage, urine ([2]; 1–2 h): 0.0047 ± 0.0015%
- Excretion Amount, urine ([2]; 1–2 h): 80.8 ± 41.0 ng
- PU-48 Concentration in urine ([2]; 1–2 h): 376.3 ± 184.2 ng/mL
- Accumulative Excretion Amount, urine ([2]; 2–4 h): 203.6 ± 48.4 ng
- Accumulative Excretion Percentage, urine ([2]; 2–4 h): 0.0073 ± 0.0018%
- Excretion Amount, urine ([2]; 2–4 h): 107.7 ± 30.0 ng
- PU-48 Concentration in urine ([2]; 2–4 h): 97.3 ± 20.1 ng/mL
- Accumulative Excretion Amount, urine ([2]; 4–6 h): 345.3 ± 107.2 ng
- Accumulative Excretion Percentage, urine ([2]; 4–6 h): 0.0123 ± 0.0038%
- Excretion Amount, urine ([2]; 4–6 h): 141.7 ± 78.0 ng
- PU-48 Concentration in urine ([2]; 4–6 h): 156.3 ± 65.6 ng/mL
- Accumulative Excretion Amount, feces ([2]; 6–8 h): 0.4 µg
- Accumulative Excretion Percentage, feces ([2]; 6–8 h): 0.0128%
- Excretion Amount, feces ([2]; 6–8 h): 0.4 µg
- PU-48 Concentration in feces ([2]; 6–8 h): 0.4 µg/mL
- Accumulative Excretion Amount, urine ([2]; 6–12 h): 496.4 ± 129.9 ng
- Accumulative Excretion Percentage, urine ([2]; 6–12 h): 0.0178 ± 0.0048%
- Excretion Amount, urine ([2]; 6–12 h): 151.1 ± 94.8 ng
- PU-48 Concentration in urine ([2]; 6–12 h): 83.6 ± 56.6 ng/mL
- Accumulative Excretion Amount, feces ([2]; 8–12 h): 12.5 ± 14.6 µg
- Accumulative Excretion Percentage, feces ([2]; 8–12 h): 0.44 ± 0.51%
- Excretion Amount, feces ([2]; 8–12 h): 12.5 ± 14.5 µg
- PU-48 Concentration in feces ([2]; 8–12 h): 6.9 ± 6.5 µg/mL
- Accumulative Excretion Amount, feces ([2]; 12–24 h): 31.5 ± 21.4 µg
- Accumulative Excretion Amount, urine ([2]; 12–24 h): 850.7 ± 589.4 ng
- Accumulative Excretion Percentage, feces ([2]; 12–24 h): 1.11 ± 0.73%
- Accumulative Excretion Percentage, urine ([2]; 12–24 h): 0.0306 ± 0.0216%
- Excretion Amount, feces ([2]; 12–24 h): 19.0 ± 11.3 µg
- Excretion Amount, urine ([2]; 12–24 h): 354.3 ± 485.8 ng
- PU-48 Concentration in feces ([2]; 12–24 h): 9.4 ± 5.3 µg/mL
- PU-48 Concentration in urine ([2]; 12–24 h): 65.3 ± 94.6 ng/mL
- Accumulative Excretion Percentage, urine ([2]; 24–36 h): 0.0380 ± 0.0250%
- Excretion Amount, urine ([2]; 24–36 h): 207.5 ± 123.7 ng
- PU-48 Concentration in urine ([2]; 24–36 h): 45.0 ± 36.9 ng/mL
- Accumulative Excretion Amount, feces ([2]; 24–48 h): 41.0 ± 21.7 µg
- Accumulative Excretion Percentage, feces ([2]; 24–48 h): 1.45 ± 0.74%
- Excretion Amount, feces ([2]; 24–48 h): 9.5 ± 9.5 µg
- PU-48 Concentration in feces ([2]; 24–48 h): 1.8 ± 1.9 µg/mL
- Excretion Amount, urine ([2]; 36–48 h): 158.4 ± 125.3 ng
- PU-48 Concentration in urine ([2]; 36–48 h): 25.6 ± 27.4 ng/mL
- Accumulative Excretion Amount, feces ([2]; 48–72 h): 44.3 ± 22.1 µg
- Accumulative Excretion Amount, urine ([2]; 48–72 h): 1319.8 ± 734.0 ng
- Accumulative Excretion Percentage, feces ([2]; 48–72 h): 1.56 ± 0.75%
- Accumulative Excretion Percentage, urine ([2]; 48–72 h): 0.0473 ± 0.0267%
- Excretion Amount, feces ([2]; 48–72 h): 3.2 ± 4.4 µg
- Excretion Amount, urine ([2]; 48–72 h): 103.2 ± 94.5 ng
- PU-48 Concentration in feces ([2]; 48–72 h): 0.5 ± 0.7 µg/mL
- PU-48 Concentration in urine ([2]; 48–72 h): 7.5 ± 5.9 ng/mL
- Accumulative Excretion Amount, urine ([2]; 72-96 h (within 96 h)): 1458.5 ± 733.1 ng
- Accumulative Excretion Percentage, urine ([2]; 72-96 h (within 96 h)): 0.0523 ± 0.0267% and 0.052 ± 0.0267% and 0.052%
- Excretion Amount, urine ([2]; 72-96 h): 138.7 ± 101.2 ng
- PU-48 Concentration in urine ([2]; 72-96 h): 9.0 ± 5.4 ng/mL
- Accumulative Excretion Amount, feces ([2]; 72–96 h (within 96 h)): 45.5 ± 22.0 µg
- Accumulative Excretion Percentage, feces ([2]; 72–96 h (within 96 h)): 1.61 ± 0.74% and 1.60%
- Excretion Amount, feces ([2]; 72–96 h): 1.2 ± 1.4 µg
- PU-48 Concentration in feces ([2]; 72–96 h): 0.2 ± 0.2 µg/mL
- Total excretion of PU-48 parent drug in the urine, feces, and bile ([2]; within 96 h): less than 2%
